We go through 30 compounds from patent US9884806B2, “Cyclic vinylogous amides as bromodomain inhibitors” (ICAHN SCHOOL OF MEDICINE AT MOUNT SINAI, priority 2013, dated 2018).

What is called IC50 is the point on the concentration scale where inhibition reaches its midpoint.

The target of assay [1] is T1, first bromodomain (BrD1) of human BRD4 (Homo sapiens, UniProt O60885).
T1 construct: the first bromodomain (BrD1) of human BRD4; poly-His (cleaved yes); made in house
The assay can be described thus: Fluorescence anisotropy binding assay (competition with FITC-labeled MS417 probe). The conditions noted are these: FITC-MS417 probe 80 nM, PBS pH 7.4, 1 hour, 25° C., read-out: BRD4_1 IC50. How it is done: Fluorescence Anisotropy Binding Assay
Expression and purification of the first bromodomain (BrD1) of human BRD4 in poly-His tag form was performed using a procedure described in the literature [See Zeng et al. Structure 16, 643-652 (2008) and Zhang et al., J Biol Chem 287, 28840-28851 (2012).] The protein was purified by using affinity chromatography on a nickel-IDA column (Invitrogen), followed by the removal of poly-His tag by thrombin cleavage.
Binding affinity of the newly synthesized compounds to the BRD4 BrD1 was assessed in a fluorescence anisotropy assay using a fluorescein isothiocyanate (FITC)-labeled MS417 as an assay probe (Zhang et al. 2008 op.cit.). Competition binding was performed with a BrD protein (0.25 to 1 μM) and the fluorescent probe (80 nM), and increasing concentration of unlabeled competing ligand in a PBS buffer (pH 7.4) in total volume of 80 μL. Measurements were obtained after 1 hour incubation of the fluorescent ligand and the protein at 25° C. with Safire 2 microplate reader (Tecan). In the assay, fluorescent ligand concentration was ≦2Kd, and protein concentration was set at which 50-80% of fluorescent ligand is bound. Dissociation constant of a competing ligand was calculated with the correction to Cheng-Prussoff equation introduced by Nicolovska-Coleska and colleagues [Nikolovska-Coleska, Z. et al., Anal Biochem 332, 261-273 (2004). Assuming one-site competitive binding model, the equation used to calculate Ki's from IC50 values recovered from fitting data using Prism:
[formula] where [I50] is the concentration of free inhibitor at 50% inhibition, [L50], the concentration of free labeled ligand at 50% inhibition, and [P0], concentration of free protein at 0% inhibition. Note that Kd for each protein-probe pair is the limit of resolvable Ki in a competition assay.

The target of a further assay is T2, BRD4_2 (Homo sapiens, UniProt O60885).
T2 construct: contains two tandem bromodomains (BrD1 and BrD2)
The assay is described as follows: Fluorescence anisotropy binding assay (competition with FITC-labeled MS417 probe), BRD4_2. The conditions noted are these: FITC-MS417 probe 80 nM, PBS pH 7.4, 1 hour, 25° C. In general terms: Polarisation of emitted light reports the rotation of a fluorescent probe.

For `COc1ccccc1NC(=O)c1ccc(NC2=C(C)C(=O)CC2)cc1OC` [Example 04-69, 2-methoxy-N-(2-methoxyphenyl)-4-((2-methyl-3-oxocyclopent-1-en-1-yl)amino)-benzamide], the IC50 in assay [1] was less than 1 µM; on BRD4_2, more than 10 µM.

As to `COc1cccc(NC(=O)c2ccc(NC3=C(C)C(=O)CC3)cc2OC)c1` [Example 04-70, 2-methoxy-N-(3-methoxyphenyl)-4-((2-methyl-3-oxocyclopent-1-en-1-yl)amino)-benzamide], the IC50 (in assay [1]; at BRD4_2) was 1 to 10 µM in each case.

`COc1ccc(NC(=O)c2ccc(NC3=C(C)C(=O)CC3)cc2OC)cc1` [Example 04-71, 2-methoxy-N-(4-methoxyphenyl)-4-((2-methyl-3-oxocyclopent-1-en-1-yl)amino)-benzamide]: the 50% inhibitory concentration (IC50) (in assay [1]; at BRD4_2) was 1 to 10 µM each time.

With `COc1cc(NC2=C(C)C(=O)CC2)ccc1C(=O)Nc1ccccc1C` [Example 04-72, 2-methoxy-4-((2-methyl-3-oxocyclopent-1-en-1-yl)amino)-N-(o-tolyl)benzamide], the IC50 in assay [1] is less than 1 µM; at BRD4_2, 1 to 10 µM.

`COc1cc(NC2=C(C)C(=O)CC2)ccc1C(=O)Nc1cccc(C)c1` [Example 04-73, 2-methoxy-4-((2-methyl-3-oxocyclopent-1-en-1-yl)amino)-N-(m-tolyl)benzamide]: the half-inhibitory concentration (IC50) (in assay [1]; on BRD4_2) was 1 to 10 µM each time.

Turning to `COc1cc(NC2=C(C)C(=O)CC2)ccc1C(=O)Nc1ccc(C)cc1` [Example 04-74, 2-methoxy-4-((2-methyl-3-oxocyclopent-1-en-1-yl)amino)-N-(p-tolyl)benzamide], the IC50 (in assay [1]; at BRD4_2) was 1 to 10 µM each time.

Turning to `CNC(=O)c1ccc(NC2=C(C)C(=O)CC2)c(C)c1` [Example 04-77, N,3-dimethyl-4-((2-methyl-3-oxocyclopent-1-en-1-yl)amino)benzamide], the IC50 in assay [1] is 1 to 10 µM; on BRD4_2, more than 10 µM.

Take `CC1=C(Nc2ccc(C(=O)NC3CCCCC3)cc2C)CCC1=O` [Example 04-78, N-cyclohexyl-3-methyl-4-((2-methyl-3-oxocyclopent-1-en-1-yl)amino)benzamide]: the IC50 (in assay [1]; at BRD4_2) was 1 to 10 µM in each case.

As to `CC1=C(Nc2ccc(C(=O)Nc3cccc4ccccc34)cc2C)CCC1=O` [Example 04-79, 3-methyl-4-((2-methyl-3-oxocyclopent-1-en-1-yl)amino)-N-(naphthalen-1-yl)benzamide], the IC50 (in assay [1]; on BRD4_2) was 1 to 10 µM throughout.

In the case of `CC1=C(Nc2ccc(C(=O)Nc3ccccc3)cc2C)CCC1=O` [Example 04-80, 3-methyl-4-((2-methyl-3-oxocyclopent-1-en-1-yl)amino)-N-phenylbenzamide], the IC50 (in assay [1]; at BRD4_2) was 1 to 10 µM each time.

Consider `COc1ccccc1NC(=O)c1ccc(NC2=C(C)C(=O)CC2)c(C)c1` [Example 04-81, N-(2-methoxyphenyl)-3-methyl-4-((2-methyl-3-oxocyclopent-1-en-1-yl)amino)-benzamide], for which the IC50 (in assay [1]; on BRD4_2) was 1 to 10 µM each time.

Regarding `COc1cccc(NC(=O)c2ccc(NC3=C(C)C(=O)CC3)c(C)c2)c1` [Example 04-82, N-(3-methoxyphenyl)-3-methyl-4-((2-methyl-3-oxocyclopent-1-en-1-yl)amino)-benzamide], the IC50 (in assay [1]; on BRD4_2) was 1 to 10 µM each time.

Regarding `COc1ccc(NC(=O)c2ccc(NC3=C(C)C(=O)CC3)c(C)c2)cc1` [Example 04-83, N-(4-methoxyphenyl)-3-methyl-4-((2-methyl-3-oxocyclopent-1-en-1-yl)amino)-benzamide], the IC50 (in assay [1]; on BRD4_2) was 1 to 10 µM each time.

Take `CC1=C(Nc2ccc(C(=O)Nc3ccccc3C)cc2C)CCC1=O` [Example 04-84, 3-methyl-4-((2-methyl-3-oxocyclopent-1-en-1-yl)amino)-N-(o-tolyl)benzamide]: the IC50 (in assay [1]; on BRD4_2) was 1 to 10 µM throughout.

In the case of `CC1=C(Nc2ccc(C(=O)Nc3cccc(C)c3)cc2C)CCC1=O` [Example 04-85, 3-methyl-4-((2-methyl-3-oxocyclopent-1-en-1-yl)amino)-N-(m-tolyl)benzamide], the IC50 (in assay [1]; at BRD4_2) was 1 to 10 µM each time.

As to `CC1=C(Nc2ccc(C(=O)Nc3ccc(C)cc3)cc2C)CCC1=O` [Example 04-86, 3-methyl-4-((2-methyl-3-oxocyclopent-1-en-1-yl)amino)-N-(p-tolyl)benzamide], the IC50 (in assay [1]; on BRD4_2) was 1 to 10 µM each time.

For the compound `COC(=O)c1cccc(NC(=O)c2ccc(Cl)c(NC3=C(C)C(=O)CCC3)c2)c1C` [Example 04-92, methyl 3-(4-chloro-3-((2-methyl-3-oxocyclohex-1-en-1-yl)amino)benzamido)-2-methylbenzoate], the values for the IC50 (in assay [1]; at BRD4_2) were 1 to 10 µM and more than 10 µM, respectively.

Regarding `COC(=O)c1ccc(C)c(NC(=O)c2ccc(Cl)c(NC3=C(C)C(=O)CCC3)c2)c1` [Example 04-93, methyl 3-(4-chloro-3-((2-methyl-3-oxocyclohex-1-en-1-yl)amino)benzamido)-4-methylbenzoate], the IC50 (in assay [1]; at BRD4_2) was 1 to 10 µM throughout.

`CC1=C(Nc2cc(C(=O)Nc3cccc(C(=O)O)c3C)ccc2Cl)CCCC1=O` [Example 04-95, 3-(4-chloro-3-((2-methyl-3-oxocyclohex-1-en-1-yl)amino)benzamido)-2-methylbenzoic acid]: the IC50 (in assay [1]; on BRD4_2) was more than 10 µM in each case.

As to `CC1=C(Nc2cc(C(=O)Nc3cc(C(=O)O)ccc3C)ccc2Cl)CCCC1=O` [Example 04-96, 3-(4-Chloro-3-((2-methyl-3-oxocyclohex-1-en-1-yl)amino)benzamido)-4-methylbenzoic acid], the half-maximal inhibitory concentration (IC50) in assay [1] was 1 to 10 µM; on BRD4_2, more than 10 µM.

As for `CC1=C(Nc2cc(C(=O)Nc3ccc(C(=O)O)cc3C)ccc2Cl)CCCC1=O` [Example 04-97, 4-(4-chloro-3-((2-methyl-3-oxocyclohex-1-en-1-yl)amino)benzamido)-3-methylbenzoic acid], the IC50 in assay [1] was 1 to 10 µM; at BRD4_2, more than 10 µM.

On to `COc1ccc(NC(=O)Cc2ccc(NC3=C(C)C(=O)CCC3)cc2)cc1` [Example 04-99, N-(4-methoxyphenyl)-2-(4-((2-methyl-3-oxocyclohex-1-en-1-yl)amino)phenyl)-acetamide], for which the IC50 (in assay [1]; at BRD4_2) was 1 to 10 µM each time.

With `COc1ccc(NC(=O)c2cc(NC3=C(C)C(=O)CCC3)cc3ccccc23)cc1` [Example 04-105, N-(4-methoxyphenyl)-3-((2-methyl-3-oxocyclohex-1-en-1-yl)amino)-1-naphthamide], the IC50 was less than 1 µM in assay [1] and 1 to 10 µM at BRD4_2.

For `COC(=O)c1ccc(NC2=C(C)C(=O)CCC2)c(Cl)c1` [Example 05-12, methyl 3-chloro-4((2-methyl-3-oxocyclohex-1-en-1-yl)amino)benzoate], the IC50 (in assay [1]; on BRD4_2) was 1 to 10 µM each time.

Turning to `COc1ccccc1NC(=O)c1ccc(NC2=C(C)C(=O)CCC2)c(Cl)c1` [Example 05-14, 3-chloro-N-(2-methoxyphenyl)-4-((2-methyl-3-oxocyclohex-1-en-1-yl)amino)benzamide], the figures for the IC50 (in assay [1]; at BRD4_2) were less than 1 µM and 1 to 10 µM, respectively.

`COc1ccc(NC(=O)c2ccc(NC3=C(C)C(=O)CC3)c(F)c2)cc1` [Example 05-17, 3-fluoro-N-(4-methoxyphenyl)-4-((2-methyl-3-oxocyclopent-1-en-1-yl)amino)benzamide]: the IC50 (in assay [1]; on BRD4_2) was 1 to 10 µM each time.

Take `COc1ccc(NC(=O)c2ccc(NC3=C(C)C(=O)CC3)c(Br)c2)cc1` [Example 05-18, 3-bromo-N-(4-methoxyphenyl)-4-((2-methyl-3-oxocyclopent-1-en-1-yl)amino)benzamide]: the IC50 in assay [1] is less than 1 µM; on BRD4_2, 1 to 10 µM.

As for `N#CC1=C(Nc2cccc(Cl)c2)CCCC1=O` [Example 05-32, 2-((3-chlorophenyl)amino)-6-oxocyclohex-1-enecarbonitrile], the IC50 (in assay [1]; at BRD4_2) was more than 10 µM throughout.

In the case of `N#CC1=C(Nc2cc(C(=O)O)ccc2Cl)CCCC1=O` [Example 05-33, 4-chloro-3-((2-cyano-3-oxocyclohex-1-en-1-yl)amino)benzoic acid], the IC50 (in assay [1]; at BRD4_2) was more than 10 µM each time.

Regarding `Cc1ccccc1NC(=O)c1ccc(Cl)c(NC2=C(C#N)C(=O)CCC2)c1` [Example 05-34, 4-chloro-3-((2-cyano-3-oxocyclohex-1-en-1-yl)amino)-N-(o-tolyl)benzamide], the IC50 (in assay [1]; at BRD4_2) was more than 10 µM each time.
